Results taken from patent publication US20220054469A1, “FARNESOID X RECEPTOR AGONISTS AND USES THEREOF” (Metacrine, Inc., priority 2018, published 2022).
pEC50: −log10 of the molar value.

Each compound was assayed against T1, hFXR (Homo sapiens, UniProt Q96RI1) (assay: In Vitro FXR Assay (TK)). Settings: CV-1 cells transfected with hFXR, hRXR, TK-ECRE-luc and pCMX-YFP; incubated with compound for 18 hrs; luminescence.
T1 construct: expressed in transfected cells; host or cells: CV-1 cells
T1 sequence (Q96RI1 1-486): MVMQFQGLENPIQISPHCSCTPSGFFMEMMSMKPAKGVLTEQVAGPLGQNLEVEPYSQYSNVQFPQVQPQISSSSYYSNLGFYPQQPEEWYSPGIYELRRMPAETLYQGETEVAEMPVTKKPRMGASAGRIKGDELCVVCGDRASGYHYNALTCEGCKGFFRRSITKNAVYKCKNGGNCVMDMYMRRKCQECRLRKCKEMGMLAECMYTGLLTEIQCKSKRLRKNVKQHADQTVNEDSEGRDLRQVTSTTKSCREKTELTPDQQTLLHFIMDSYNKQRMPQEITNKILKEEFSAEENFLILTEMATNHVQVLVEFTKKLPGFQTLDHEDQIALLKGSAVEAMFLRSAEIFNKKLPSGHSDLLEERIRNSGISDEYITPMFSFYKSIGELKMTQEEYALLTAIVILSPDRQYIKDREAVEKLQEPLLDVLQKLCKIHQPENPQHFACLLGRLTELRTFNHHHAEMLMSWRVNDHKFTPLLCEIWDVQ
T1 sequence (P19793 1-462 partner): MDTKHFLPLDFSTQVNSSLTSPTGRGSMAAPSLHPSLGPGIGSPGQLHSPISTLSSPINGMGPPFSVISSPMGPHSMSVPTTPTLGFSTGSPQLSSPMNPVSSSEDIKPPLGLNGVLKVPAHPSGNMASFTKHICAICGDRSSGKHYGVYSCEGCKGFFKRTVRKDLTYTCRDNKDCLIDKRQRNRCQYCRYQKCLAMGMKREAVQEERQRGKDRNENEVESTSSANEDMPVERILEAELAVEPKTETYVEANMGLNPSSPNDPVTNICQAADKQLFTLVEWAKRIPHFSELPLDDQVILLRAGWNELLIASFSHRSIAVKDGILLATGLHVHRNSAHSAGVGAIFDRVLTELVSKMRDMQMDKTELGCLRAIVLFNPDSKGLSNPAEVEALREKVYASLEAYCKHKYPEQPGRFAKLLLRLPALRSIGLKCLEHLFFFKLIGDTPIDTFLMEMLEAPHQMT
Type: cell-based
Experimental: Example B-1: In Vitro FXR Assay (TK)
CV-1 cells were seeded at a density of 2,000,000 cells in a T175 flask with DMEM+10% charcoal double-stripped FBS and incubated at 37° C. in 5% CO2 for 18 h (O/N).
After 18 h of incubation, the medium in the T175 flask was changed with fresh DMEM+10% charcoal super-stripped serum. In a polypropylene tube, 2500 μL OptiMEM (Life Technologies, Cat #31985-062) was combined with expression plasmids for hFXR, hRXR, TK-ECRE-luc and pCMX-YFP. The tube was then briefly vortexed and incubated at room temperature for 5 minutes. Transfection reagent (X-tremeGENE HP from Roche, Cat #06 366 236 001) was added to the OptiMEM/plasmid mixture vortexed and incubated at room temperature for 20 minutes. Following incubation, the transfection reagent/DNA mixture complex was added to cells in the T175 flask and the cells were incubated at 37° C. in 5% CO2 for 18 h (O/N).
Compounds were serially diluted in DMSO and added to transfected CV-1 cells. The cells were then incubated for 18 hrs. The next day cells were lysed and examined for luminescence.

| Compound | pEC50 |
| --- | --- |
| COc1ncc(C23CCC(CN(c4cccc(-c5cnn(C(C)(C)C)c5)c4)C(=O)[C@H]4CC[C@H](CC(=O)O)CC4)(CC2)CC3)cc1C [Compound 2.07, trans-2-(4-((3-(1-(tert-Butyl)-1H-pyrazol-4-yl)phenyl)((4-(6-methoxy-5-methylpyridin-3-yl)bicyclo[2.2.2]octan-1-yl)methyl)carbamoyl)cyclohexyl)acetic acid] | ≥ 7.30 |
| COc1ccc(C23CCC(CN(c4cccc(-c5cnn(C(C)C)c5)c4F)C(=O)[C@H]4CC[C@H](CC(=O)O)CC4)(CC2)CC3)cc1C [Compound 2.08, trans-2-(4-((2-Fluoro-3-(1-isopropyl-1H-pyrazol-4-yl)phenyl)((4-(4-methoxy-3-methylphenyl)bicyclo[2.2.2]octan-1-yl)methyl)carbamoyl)cyclohexyl)acetic acid] | ≥ 7.30 |
| COc1ccc(C23CCC(CN(c4ccc(F)c(-c5cnn(C(C)C)c5)c4)C(=O)[C@H]4CC[C@H](CC(=O)O)CC4)(CC2)CC3)cc1C [Compound 2.09, trans-2-(4-((4-Fluoro-3-(1-isopropyl-1H-pyrazol-4-yl)phenyl)((4-(4-methoxy-3-methylphenyl)bicyclo[2.2.2]octan-1-yl)methyl)carbamoyl)cyclohexyl)acetic acid] | ≥ 7.30 |
| COc1ccc(C23CCC(CN(c4cc(-c5cnn(C(C)C)c5)c(F)cn4)C(=O)[C@H]4CC[C@H](CC(=O)O)CC4)(CC2)CC3)cc1C [Compound 2.10, trans-2-(4-((5-Fluoro-4-(1-isopropyl-1H-pyrazol-4-yl)pyridin-2-yl)((4-(4-methoxy-3-methylphenyl)bicyclo[2.2.2]octan-1-yl)methyl)carbamoyl)cyclohexyl)acetic acid] | ≥ 7.30 |
| COc1ccc([C@H]2CC[C@H](CN(c3cc(-c4cnc(C(C)C)s4)ccn3)C(=O)[C@H]3CC[C@H](CC(=O)O)CC3)CC2)cc1C [Compound 2.12, 2-(trans-4-((4-(2-Isopropylthiazol-5-yl)pyridin-2-yl)((trans-4-(4-methoxy-3-methylphenyl)cyclohexyl)methyl)carbamoyl)cyclohexyl)acetic acid] | ≥ 7.30 |
| COc1ccc(C23CCC(CN(c4cc(-c5cnn(C(C)C)c5)ncn4)C(=O)[C@H]4CC[C@H](CC(=O)O)CC4)(CC2)CC3)cc1C [Compound 3, trans-2-(4-((6-(1-Isopropyl-1H-pyrazol-4-yl)pyrimidin-4-yl)((4-(4-methoxy-3-methylphenyl)bicyclo[2.2.2]octan-1-yl)methyl)carbamoyl)cyclohexyl)acetic acid] | 6.00 to 7.30 |
| COc1ccc(C23CCC(CN(c4cc(-c5cnn(C(C)C)c5)ccn4)C(=O)[C@H]4CC[C@@H](C(=O)O)CC4)(CC2)CC3)cc1C [Compound 3.01, cis-4-((4-(1-Isopropyl-1H-pyrazol-4-yl)pyridin-2-yl)((4-(4-methoxy-3-methylphenyl)bicyclo[2.2.2]octan-1-yl)methyl)carbamoyl)cyclohexanecarboxylic acid] | 6.00 to 7.30 |
| COc1ccc(C23CCC(CN(c4cccc(-c5cnn(C(C)C)c5)c4)C(=O)[C@H]4CC[C@H](CC(=O)O)CC4)(CC2)CC3)cc1C [Compound 3.02, trans-2-(4-((3-(1-Isopropyl-1H-pyrazol-4-yl)phenyl)((4-(4-methoxy-3-methylphenyl)bicyclo[2.2.2]octan-1-yl)methyl)carbamoyl)cyclohexyl)acetic acid] | ≥ 7.30 |
| COc1ccc([C@H]2CC[C@H](CN(c3cccc(-c4cnn(C(C)(C)C)c4)c3)C(=O)[C@H]3CC[C@H](CCC(=O)O)CC3)CC2)cc1C [Compound 3.03, trans-3-(4-((3-(1-(tert-Butyl)-1H-pyrazol-4-yl)phenyl)((trans-4-(4-methoxy-3-methylphenyl)cyclohexyl)methyl)carbamoyl)cyclohexyl)propanoic acid] | ≥ 7.30 |
| COc1ccc(C23CCC(CN(c4cc(-c5cnn(C(C)(C)C)c5)ccn4)C(=O)[C@H]4CC[C@H](CCC(=O)O)CC4)(CC2)CC3)cc1C [Compound 3.04, trans-3-(4-((4-(1-(tert-Butyl)-1H-pyrazol-4-yl)pyridin-2-yl)((4-(4-methoxy-3-methylphenyl)bicyclo[2.2.2]octan-1-yl)methyl)carbamoyl)cyclohexyl)propanoic acid] | ≥ 7.30 |
| COc1ccc(C23CCC(CN(c4cc(-c5coc(C(C)C)n5)ccn4)C(=O)[C@H]4CC[C@H](CC(=O)O)CC4)(CC2)CC3)cc1C [Compound 4, trans-2-(4-((4-(2-Isopropyloxazol-4-yl)pyridin-2-yl)((4-(4-methoxy-3-methylphenyl)bicyclo[2.2.2]octan-1-yl)methyl)carbamoyl)cyclohexyl)acetic acid] | ≥ 7.30 |

The remaining lines, values ahead:

| pEC50 | Compound |
| --- | --- |
| ≥ 7.30 | COc1ccc(C23CCC(CN(c4cccc(-c5cnn(C(C)C)c5)c4)C(=O)[C@H]4CC[C@H](C(=O)O)CC4)(CC2)CC3)cc1C [Compound 4.01, trans-4-((3-(1-Isopropyl-1H-pyrazol-4-yl)phenyl)((4-(4-methoxy-3-methylphenyl)bicyclo[2.2.2]octan-1-yl)methyl)carbamoyl)cyclohexanecarboxylic acid] |
| ≥ 7.30 | COc1ccc(C23CCC(CN(c4cc(-c5cnn(C(C)C)c5)ccn4)C(=O)[C@H]4CC[C@H](C(=O)O)CC4)(CC2)CC3)cc1C [Compound 4.02, trans-4-((4-(1-Isopropyl-1H-pyrazol-4-yl)pyridin-2-yl)((4-(4-methoxy-3-methylphenyl)bicyclo[2.2.2]octan-1-yl)methyl)carbamoyl)cyclohexanecarboxylic acid] |
| ≥ 7.30 | COc1ccc(C23CCC(CN(c4cc(-c5cnn(C(C)(C)C)c5)ccn4)C(=O)[C@H]4CC[C@H](C(=O)O)CC4)(CC2)CC3)cc1C [Compound 4.03, trans-4-((4-(1-(tert-Butyl)-1H-pyrazol-4-yl)pyridin-2-yl)((4-(4-methoxy-3-methylphenyl)bicyclo[2.2.2]octan-1-yl)methyl)carbamoyl)cyclohexanecarboxylic acid] |
| ≥ 7.30 | COc1ccc(C23CCC(CN(c4cc(-c5cnn(C(C)(C)C)c5)ccn4)C(=O)[C@H]4CC[C@H](CC(=O)O)CC4)(CC2)CC3)cc1C [Compound 4.04, trans-2-(4-((4-(1-(tert-Butyl)-1H-pyrazol-4-yl)pyridin-2-yl)((4-(4-methoxy-3-methylphenyl)bicyclo[2.2.2]octan-1-yl)methyl)carbamoyl)cyclohexyl)acetic acid] |
| 6.00 to 7.30 | COc1ccc(C23CCC(CN(c4cc(-c5cnn(C(C)(C)C)c5)ncn4)C(=O)[C@H]4CC[C@H](CC(=O)O)CC4)(CC2)CC3)cc1C [Compound 4.07, trans-2-(4-((6-(1-(tert-Butyl)-1H-pyrazol-4-yl)pyrimidin-4-yl)((4-(4-methoxy-3-methylphenyl)bicyclo[2.2.2]octan-1-yl)methyl)carbamoyl)cyclohexyl)acetic acid] |
| 6.00 to 7.30 | COc1c(C)cc(C23CCC(CN(c4cc(-c5cnn(C(C)C)c5)ncn4)C(=O)[C@H]4CC[C@H](CC(=O)O)CC4)(CC2)CC3)cc1C [Compound 4.08, trans-2-(4-((6-(1-Isopropyl-1H-pyrazol-4-yl)pyrimidin-4-yl)((4-(4-methoxy-3,5-dimethylphenyl)bicyclo[2.2.2]octan-1-yl)methyl)carbamoyl)cyclohexyl)acetic acid] |
| ≥ 7.30 | COc1ncc(C23CCC(CN(c4cccc(-c5cnn(C(C)C)c5)c4)C(=O)[C@H]4CC[C@H](CC(=O)O)CC4)(CC2)CC3)cc1C [Compound 4.11, trans-2-(4-((3-(1-Isopropyl-1H-pyrazol-4-yl)phenyl)((4-(6-methoxy-5-methylpyridin-3-yl)bicyclo[2.2.2]octan-1-yl)methyl)carbamoyl)cyclohexyl)acetic acid] |
| ≥ 7.30 | COc1ncc(C23CCC(CN(c4cc(-c5cnn(C(C)C)c5)ccn4)C(=O)[C@H]4CC[C@H](CC(=O)O)CC4)(CC2)CC3)cc1C [Compound 4.12, trans-2-(4-((4-(1-Isopropyl-1H-pyrazol-4-yl)pyridin-2-yl)((4-(6-methoxy-5-methylpyridin-3-yl)bicyclo[2.2.2]octan-1-yl)methyl)carbamoyl)cyclohexyl)acetic acid] |
